In patent US10780090B2, “Heteroaryl compounds useful as inhibitors of SUMO activating enzyme” (Millennium Pharmaceuticals, Inc., priority 2014, dated 2020):
Where two headings read alike, the source gives them in different places.

Biological target: recombinant human SAE enzyme (Homo sapiens (Human), UniProt Q9UBT2)
Test: SAE HTRF enzyme assay
Type: biochemical
Conditions: for inhibition at 0.111 µM: read-out: Percent Inhibition
How it was run: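 First, recombinant human SAE (0.11 nM) transfers Sumo-Flag onto Ubc9-GST using 0.5 μM ATP for 105 min at 24° C. Next, EDTA-containing detection buffer with labelled anti-Flag and anti-GST antibodies is added for 2 h. Finally, FRET is quantified and percent inhibition or IC50 derived.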

[1] = SAE inhibition at compound concentration 0.111 μM
[2] = SAE inhibition, class symbols, legend in nM

Chain of recombinant human SAE enzyme (Q9UBT2 whole entry): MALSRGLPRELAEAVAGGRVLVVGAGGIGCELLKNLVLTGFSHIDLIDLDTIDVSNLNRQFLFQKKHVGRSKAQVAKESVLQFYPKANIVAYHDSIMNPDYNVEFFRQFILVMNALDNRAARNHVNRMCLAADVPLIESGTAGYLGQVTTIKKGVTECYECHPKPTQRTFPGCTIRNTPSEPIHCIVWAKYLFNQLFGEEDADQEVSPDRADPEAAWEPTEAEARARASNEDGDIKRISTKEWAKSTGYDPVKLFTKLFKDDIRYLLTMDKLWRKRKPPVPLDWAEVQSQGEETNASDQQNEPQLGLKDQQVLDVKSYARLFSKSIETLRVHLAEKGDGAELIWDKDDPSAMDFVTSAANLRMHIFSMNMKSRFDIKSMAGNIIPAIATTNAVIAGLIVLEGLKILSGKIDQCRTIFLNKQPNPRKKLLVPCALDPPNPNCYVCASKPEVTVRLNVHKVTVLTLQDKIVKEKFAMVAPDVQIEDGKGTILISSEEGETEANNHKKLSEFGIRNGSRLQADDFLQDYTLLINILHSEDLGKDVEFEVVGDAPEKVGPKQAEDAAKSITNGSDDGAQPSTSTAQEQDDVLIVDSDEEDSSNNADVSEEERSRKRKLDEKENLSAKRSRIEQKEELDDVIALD
Chain of recombinant human SAE enzyme (Q9UBE0 whole entry partner): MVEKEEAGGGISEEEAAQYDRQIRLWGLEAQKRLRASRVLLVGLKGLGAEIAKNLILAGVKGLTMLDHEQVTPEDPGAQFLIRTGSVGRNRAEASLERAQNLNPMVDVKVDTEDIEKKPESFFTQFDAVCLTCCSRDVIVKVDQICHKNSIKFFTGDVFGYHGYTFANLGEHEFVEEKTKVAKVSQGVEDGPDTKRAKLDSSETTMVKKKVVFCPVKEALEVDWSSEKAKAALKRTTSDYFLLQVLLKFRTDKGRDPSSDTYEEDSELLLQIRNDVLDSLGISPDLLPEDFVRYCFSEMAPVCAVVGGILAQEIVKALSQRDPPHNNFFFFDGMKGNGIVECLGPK

Row | Compound | Percent Inhibition (Concentration 0.111 μM) | IC50 (class symbols A/B/C) [nM] | IC50 [2] [nM] | further results
1 | NS(=O)(=O)OC[C@H]1C[C@@H](Nc2ncncc2C(=O)c2cc([C@H](O)c3cc(Br)ccc3F)cs2)C[C@@H]1O (single isomer, unassigned) [I-19a, [(1R,2S,4R)-4-{[5-({4-[(R)-(5-bromo-2-fluorophenyl)(hydroxy)methyl]-2-thienyl}carbonyl)pyrimidin-4-yl]amino}-2-hydroxycyclopentyl]methyl sulfamate or [(1R,2S,4R)-4-{[5-({4-[(S)-(5-bromo-2-fluorophenyl)(hydroxy)methyl]-2-thienyl}carbonyl)pyrimidin-4-yl]amino}-2-hydroxycyclopentyl]methyl sulfamate] | 98 | < 10 |  | 
2 | CC(=O)c1coc(C(=O)c2cncnc2N[C@@H]2C[C@H](COS(N)(=O)=O)[C@@H](O)C2)c1 [I-234, [(1R,2S,4R)-4-{[5-(4-Acetyl-2-furoyl)pyrimidin-4-yl]amino}-2-hydroxycyclopentyl]methyl sulfamate] |  | 100 to 1000 |  | inhibition at 0.111 µM (Concentration 0.111 μM): 20%
3 | CN[C@H](c1cccc(Cl)c1)c1csc(C(=O)c2cncnc2N[C@@H]2C[C@H](COS(N)(=O)=O)[C@@H](O)C2)c1 (mixture of isomers) [I-47, [(1R,2S,4R)-4-{[5-({4-[(R)-(3-chlorophenyl)(methylamino)methyl]-2-thienyl}carbonyl)pyrimidin-4-yl]amino}-2-hydroxycyclopentyl]methyl sulfamate and [(1R,2S,4R)-4-{[5-({4-[(S)-(3-chlorophenyl)(methylamino)methyl]-2-thienyl}carbonyl)pyrimidin-4-yl]amino}-2-hydroxycyclopentyl]methyl sulfamate] | 97 | < 10 |  | 
4 | Cc1sc(C(=O)c2cncnc2N[C@@H]2C[C@H](COS(N)(=O)=O)[C@@H](O)C2)cc1[C@@H]1OCCc2ccsc21 (single isomer, unassigned) [I-269b, [(1R,2S,4R)-4-{[5-({4-[(7S)-4,7-dihydro-5H-thieno[2,3-c]pyran-7-yl]-5-methyl-2-thienyl}carbonyl)pyrimidin-4-yl]amino}-2-hydroxycyclopentyl]methyl sulfamate or [(1R,2S,4R)-4-{[5-({4-[(7R)-4,7-dihydro-5H-thieno[2,3-c]pyran-7-yl]-5-methyl-2-thienyl}carbonyl)pyrimidin-4-yl]amino}-2-hydroxycyclopentyl]methyl sulfamate] | 95 | 10 to 100 |  | 
5 | {(1R,2S,4R)-4-[(5-{5-chloro-4-[(1R)-7-chloro-1,2,3,4-tetrahydroisoquinolin-1-yl]-2- [I-299] |  |  | < 10 | Percent Inhibition [1]: 98%
6 | C[C@](O)(c1csc(C(=O)c2cncnc2N[C@@H]2C[C@H](COS(N)(=O)=O)[C@@H](O)[C@H]2O)c1)c1cccc(Br)n1 (single isomer, unassigned) [I-1a, [(1R,2R,3S,4R)-4-{[5-({4-[(1S)-1-(6-bromopyridin-2-yl)-1-hydroxyethyl]-2-thienyl}carbonyl)pyrimidin-4-yl]amino}-2,3-dihydroxycyclopentyl]methyl sulfamate or [(1R,2R,3S,4R)-4-{[5-({4-[(1R)-1-(6-bromopyridin-2-yl)-1-hydroxyethyl]-2-thienyl}carbonyl)pyrimidin-4-yl]amino}-2,3-dihydroxycyclopentyl]methyl sulfamate] | 96 | < 10 |  | 
7 | Cc1sc(C(=O)c2cncnc2N[C@@H]2C[C@H](COS(N)(=O)=O)[C@@H](O)C2)cc1[C@H]1NCCc2ccccc21 (single isomer, unassigned) [I-292b, [(1R,2S,4R)-2-hydroxy-4-{[5-({5-methyl-4-[(1S)-1,2,3,4-tetrahydroisoquinolin-1-yl]-2-thienyl}carbonyl)pyrimidin-4-yl]amino}cyclopentyl]methyl sulfamate or [(1R,2S,4R)-2-hydroxy-4-{[5-({5-methyl-4-[(1R)-1,2,3,4-tetrahydroisoquinolin-1-yl]-2-thienyl}carbonyl)pyrimidin-4-yl]amino}cyclopentyl]methyl sulfamate] |  |  | 10 to 100 | Percent Inhibition [1]: 87%
8 | NS(=O)(=O)OC[C@H]1C[C@@H](Nc2ncncc2C(=O)c2cc([C@@H]3NCCc4ccc(Cl)nc43)c(Cl)s2)C[C@@H]1O (single isomer, unassigned) [I-253b, [(1R,2S,4R)-4-{[5-({5-chloro-4-[(8S)-2-chloro-5,6,7,8-tetrahydro-1,7-naphthyridin-8-yl]-2-thienyl}carbonyl)pyrimidin-4-yl]amino}-2-hydroxycyclopentyl]methyl sulfamate or [(1R,2S,4R)-4-{[5-({5-chloro-4-[(8R)-2-chloro-5,6,7,8-tetrahydro-1,7-naphthyridin-8-yl]-2-thienyl}carbonyl)pyrimidin-4-yl]amino}-2-hydroxycyclopentyl]methyl sulfamate] | 83 | 10 to 100 |  | 
9 | Cc1sc(C(=O)c2cncnc2N[C@@H]2C[C@H](COS(N)(=O)=O)[C@@H](O)C2)cc1[C@@H]1OCCc2oc(Cl)cc21 (mixture of isomers) [I-298, [(1R,2S,4R)-4-{[5-({4-[(4R)-2-chloro-6,7-dihydro-4H-furo[3,2-c]pyran-4-yl]-5-methyl-2-thienyl}carbonyl)pyrimidin-4-yl]amino}-2-hydroxycyclopentyl]methyl sulfamate and [(1R,2S,4R)-4-{[5-({4-[(4S)-2-chloro-6,7-dihydro-4H-furo[3,2-c]pyran-4-yl]-5-methyl-2-thienyl}carbonyl)pyrimidin-4-yl]amino}-2-hydroxycyclopentyl]methyl sulfamate] |  |  | < 10 | Percent Inhibition [1]: 96%
10 | Cc1sc(C(=O)c2cncnc2N[C@@H]2C[C@H](COS(N)(=O)=O)[C@@H](O)C2)cc1C1=NCCc2ccc(Cl)cc21 [I-360, ((1R,2S,4R)-4-{(5-(4-(7-chloro-3,4-dihydroisoquinolin-1-yl)-5-methylthiophene-2-carbonyl)pyrimidin-4-yl)amino)-2-hydroxycyclopentyl)methyl sulfamate] |  |  | < 10 | inhibition at 0.111 µM [1]: 95%
11 | NS(=O)(=O)OC[C@H]1C[C@@H](Nc2ncncc2C(=O)c2cc(CO)cs2)C[C@@H]1O [I-230, {(1R,2S,4R)-2-hydroxy-4-[(5-{[4-(hydroxymethyl)-2-thienyl]carbonyl}pyrimidin-4-yl)amino]cyclopentyl}methyl sulfamate] |  | 100 to 1000 |  | inhibition at 0.111 µM (Concentration 0.111 μM): 26%
12 | CC(c1cccc(Cl)c1)c1csc(C(=O)c2cncnc2N[C@@H]2C[C@H](COS(N)(=O)=O)[C@@H](O)C2)c1 (single isomer, unassigned) [I-117a, [(1R,2S,4R)-4-{[5-({4-[(1S)-1-(3-chlorophenyl)ethyl]-2-thienyl}carbonyl)pyrimidin-4-yl]amino}-2-hydroxycyclopentyl]methyl sulfamate or [(1R,2S,4R)-4-{[5-({4-[(1R)-1-(3-chlorophenyl)ethyl]-2-thienyl}carbonyl)pyrimidin-4-yl]amino}-2-hydroxycyclopentyl]methyl sulfamate] | 73 | 10 to 100 |  | 
13 | NS(=O)(=O)OC[C@H]1C[C@@H](Nc2ncncc2C(=O)c2cc(Cc3cccc(Cl)c3)cs2)C[C@@H]1O [I-43, {(1R,2S,4R)-4-[(5-{[4-(3-chlorobenzyl)-2-thienyl]carbonyl}pyrimidin-4-yl)amino]-2-hydroxycyclopentyl}methyl sulfamate] |  |  |  | inhibition at 0.111 µM (Concentration 0.111 μM): 99%
